Measurements: US4325974A, “β, γ-Dihydropolyprenyl alcohol and hypotensive pharmaceutical composition containing same” (Eisai Co., Ltd., priority 1978, dated 1982)

Legend:
[1] = system: spontaneously hypertensive rats (SHR) of Okamoto and Aoki; experiment: Hypotensive effect on spontaneously hypertensive rats (blood pressure, tail-cuff method; heart rate, tachometer); format: in vivo, rat (SHR of Okamoto and Aoki); settings: 10 mg/kg oral
Method: I. The hypotensive effect of the formula (I) compound, according to the invention, on spontaneously hypertensive rats (hereinafter referred to as SHR) of Okamoto and Aoki:
The hypotensive effects of the test compounds on SHR of Okamoto and Aoki of about 35 weeks age were determined. The systolic blood pressure of the SHR was around 230 mmHg.
The test compounds were given to the SHR orally in the form of a suspension in aqueous acacia solution. The SHR were divided into a test compound group to which a test compound was administered and a control group to which only an aqueous acacia solution (free of test compound) was administered. Each group comprised three SHR.
The blood pressure of the SHR was measured with a Shimazu continuous tonometer SCS-301 (a product of Shimazu Seisakusho Co., Ltd.). Tail artery pressure was indirectly measured by a tail-cuff method.
The blood pressure was measured immediately before the administration and at 2, 4, 6 and 24 hours after the administration to determine the change in blood pressure with the passing of time.
The heart rate was determined by recording the pulse rate at the tail of the SHR with a tachometer of said tonometer […]. Test Compound and Dose
10 mg/kg (body weight of SHR)

[2] = system: hepatic disease (hepatitis), induced by intraabdominal administration of D-galactosamine; experiment: Effect on hepatic disease (hepatitis) induced by intraabdominal administration of D-galactosamine; format: in vivo; settings: SD rats
Method: II. The effects of the formula (I) compound, according to the invention, on hepatic disease (hepatitis), induced by intraabdominal administration of D-galactosamine.
SD rats weighing about 250 g were used as test animals. D-Galactosamine hydrochloride (250 mg/kg each administration) and the test compound (50 mg/kg each administration) were administered intraabdominally to the rats on the schedule of experiments set forth below. After completion of the administration, blood was drawn from the test animals. The GPT value and alkali phosphatase value of the blood, which are indexes of the hepatic disease, were determined.
The test compound was used in the form of a suspension in 5% aqueous acacia solution. D-Galactosamine hydrochloride was used in the form of an aqueous solution thereof in distilled water, which solution was adjusted to pH 7 with potassium hydroxide. The rats were divided into three groups, i.e., a test compound group (comprising 9 rats) to which the test compound was administered, a control group (comprising 14 rats) to which 5% aqueous acacia solution free of the test compound was administered and a normal group (comprising 9 rats) to which neither the test compound nor D-galactosamine hydrochloride was administered. [drawing 9]

CC(C)=CCCC(C)=CCCC(C)=CCCC(C)=CCCC(C)=CCCC(C)=CCCC(C)=CCCC(C)=CCCC(C)=CCCC(C)CCO (centres unmarked) [test compound, 3,7, 11, 15, 19, 23, 27, 31, 35, 39-Decamethyl-6, 10, 14, 18, 22, 26, 30, 34, 38-tetracontanonaene-1-ol]
blood pressure two hours after the administration ([1]; 2 h, before administration 227±7 mmHg): 207±9 mmHg
blood pressure six hours after the administration ([1]; 6 h, before administration 227±7 mmHg, control 232±7 mmHg at 6 h): 202±12 mmHg
blood pressure 24 hours after the administration ([1]; 24 h, before administration 227±7 mmHg): 212±9 mmHg
effect on the heart rate ([1]; result in words): No effect on the heart rate was observed
hypotensive effect ([1]; result in words): clear, long-lasting hypotensive effect
effect on hepatic disease induced by D-galactosamine hydrochloride ([2]; 50 mg/kg each intraabdominal, result in words): ameliorated or prevented
Alkali phosphatase value ([2]; test compound 50 mg/kg each and D-galactosamine hydrochloride 250 mg/kg each, intraabdominal, control 70.9 ± 3.9, normal 32.3 ± 2.5): 63.7 ± 4.3 KA-U
GPT Value ([2]; test compound 50 mg/kg each and D-galactosamine hydrochloride 250 mg/kg each, intraabdominal, control 1041.4 ± 200.8, normal 46.5 ± 4.9): 523.3 ± 111.7 Carmen unit
